Data as given in paper PMC4444023 (PLoS ONE, 2015).
Entries after “also recorded” stand apart in the source; their conditions may differ.

Experiments:
macrophages = conditions: cited from earlier work
human nSMase2 = target: T1, human nSMase2 (Homo sapiens, UniProt Q9NY59); assay: Fluorescence (Amplex red coupled) nSMase2 activity assay; type: biochemical; parameters: Full length human nSMase2 cDNA with a C-terminal Flag tag; crude cell lysate used as enzyme
T1 sequence (Q9NY59 1-655): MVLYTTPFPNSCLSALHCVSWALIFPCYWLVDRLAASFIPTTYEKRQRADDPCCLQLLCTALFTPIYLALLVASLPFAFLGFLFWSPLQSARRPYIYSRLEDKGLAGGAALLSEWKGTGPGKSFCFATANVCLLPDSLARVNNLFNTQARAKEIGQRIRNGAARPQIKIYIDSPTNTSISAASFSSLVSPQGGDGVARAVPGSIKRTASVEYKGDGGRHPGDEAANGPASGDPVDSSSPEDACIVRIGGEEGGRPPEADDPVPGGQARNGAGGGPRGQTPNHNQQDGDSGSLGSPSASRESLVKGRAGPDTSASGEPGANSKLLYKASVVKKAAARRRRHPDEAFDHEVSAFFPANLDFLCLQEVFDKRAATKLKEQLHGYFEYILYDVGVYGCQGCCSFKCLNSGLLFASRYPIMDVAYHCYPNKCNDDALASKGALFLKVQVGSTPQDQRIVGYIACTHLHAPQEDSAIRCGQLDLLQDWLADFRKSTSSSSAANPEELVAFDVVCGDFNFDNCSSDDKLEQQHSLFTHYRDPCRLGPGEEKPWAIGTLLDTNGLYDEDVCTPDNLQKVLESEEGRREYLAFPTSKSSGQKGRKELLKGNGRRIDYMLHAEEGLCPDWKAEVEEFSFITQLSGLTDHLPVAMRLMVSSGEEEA
Description: The production of the latter was coupled to a dephosphorylation reaction catalyzed by alkaline phosphatase (4 U/ml) to produce choline, followed by oxidation of choline by choline oxidase (0.1 U/ml) to produce betaine and H2O2, which in the presence of horseradish peroxidase (HRP, 1U/ml) and 50 μM Amplex red, generates the fluorescent molecule resorufin (Life Technologies). Substrate stock solution was prepared in 2% Triton X-100, vortexed and sonicated for 30 min. Reactions were carried out for 1 h at 37°C in 100 mM Tris-HCl pH 7.4, 10 mM MgCl2, 0.2% Triton X-100 and the generation of the fluorescent product was monitored by measuring relative florescence units (RFU) with excitation at 530 nm and emission at 590 nm (Fig 1). This assay was optimized for 384-well format (50 μl total volume per well) based on linearity of the enzymatic activity with respect to time, as well as substrate and enzyme concentrations. […] This fluorescence assay was used for compound screening and IC50 value determinations, based on duplicate eight-point dose response curves.

rat nSMase2 = target: T2, rat nSMase2 (Rattus norvegicus, UniProt O35049); assay: Fluorescence assay with rat brain homogenate membrane fraction; type: biochemical; conditions: rat brain homogenates
T2 construct: A membrane protein-enriched fraction of rat brain homogenate was used as the source for nSMase2; from tissue; host or cells: rat brain homogenate, membrane protein-enriched fraction
T2 sequence (O35049 1-655): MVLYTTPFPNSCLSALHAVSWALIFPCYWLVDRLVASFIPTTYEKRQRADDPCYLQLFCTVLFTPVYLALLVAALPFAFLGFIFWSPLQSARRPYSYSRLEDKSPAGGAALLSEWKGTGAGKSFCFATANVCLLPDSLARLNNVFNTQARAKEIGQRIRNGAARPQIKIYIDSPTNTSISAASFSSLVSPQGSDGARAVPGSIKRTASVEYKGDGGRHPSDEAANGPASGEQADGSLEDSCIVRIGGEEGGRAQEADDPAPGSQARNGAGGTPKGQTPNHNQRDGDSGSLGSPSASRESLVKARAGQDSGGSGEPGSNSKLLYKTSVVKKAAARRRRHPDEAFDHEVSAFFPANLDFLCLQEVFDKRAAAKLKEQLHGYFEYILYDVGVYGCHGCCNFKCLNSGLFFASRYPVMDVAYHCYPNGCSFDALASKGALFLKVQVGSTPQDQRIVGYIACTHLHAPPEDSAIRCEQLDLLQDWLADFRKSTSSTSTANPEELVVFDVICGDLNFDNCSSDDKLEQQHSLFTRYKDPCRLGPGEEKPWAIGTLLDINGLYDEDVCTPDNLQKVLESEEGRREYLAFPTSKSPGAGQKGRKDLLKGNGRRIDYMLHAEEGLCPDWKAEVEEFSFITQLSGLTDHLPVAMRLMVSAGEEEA

SIRT1 = conditions: NAD-dependent deacetylase activity; cited from earlier work
[1] = tested on: rat primary hippocampal neurons; assay: Hippocampal neuronal survival (Hoechst 33342); type: cell-based; conditions: for effect on TNF-α or IL-1β-induced neuron cell death (words): Hoechst 33342 staining
Description: All animal procedures were approved by the Johns Hopkins University Animal Care and Use Committee. Primary hippocampal neurons were prepared from day 18 decapitated embryos of Sprague-Dawley rats following previously described methods. Cells were seeded on polyethyleneimine (PEI)-coated slides in 12-well plates and cultured between 14–21 days. […] After 18 h, cells were stained with 50 μg/ml Hoeschst 33342 for 20 min and then fixed with 4% paraformaldehyde for 30 min. The number of living and apoptotic cells was determined by fluorescence microscopy. A minimum of 500 cells were counted per treatment condition. Results were normalized to control untreated cells and were representative of at least two independent experiments conducted in triplicate. Statistical evaluation of the data was done by Student’s t-test.

SMILES: O=c1[nH]c(=S)[nH]c(-c2ccccc2)c1Cc1c(O)ccc2ccccc12 [Cambinol, cambinol]
- TNF-α and IL-6 release (macrophages): effectively inhibited
- 1/V (human nSMase2; 1/[SM] 0.002 µM^-1, 2 µM Cambinol): 0.00052 h/RFU
- 1/V (human nSMase2; 1/[SM] 0.002 µM^-1, 3 µM Cambinol): 0.00066 h/RFU
- 1/V (human nSMase2; 1/[SM] 0.002 µM^-1, 5 µM Cambinol): 0.00102 h/RFU
- 1/V (human nSMase2; 1/[SM] 0.003 µM^-1, 2 µM Cambinol): 0.00062 h/RFU
- 1/V (human nSMase2; 1/[SM] 0.003 µM^-1, 3 µM Cambinol): 0.00078 h/RFU
- 1/V (human nSMase2; 1/[SM] 0.003 µM^-1, 5 µM Cambinol): 0.00109 h/RFU
- 1/V (human nSMase2; 1/[SM] 0.006 µM^-1, 2 µM Cambinol): 0.00075 h/RFU
- 1/V (human nSMase2; 1/[SM] 0.006 µM^-1, 3 µM Cambinol): 0.00095 h/RFU
- 1/V (human nSMase2; 1/[SM] 0.006 µM^-1, 5 µM Cambinol): 0.00128 h/RFU
- 1/V (human nSMase2; 1/[SM] 0.013 µM^-1, 2 µM Cambinol): 0.00096 h/RFU
- 1/V (human nSMase2; 1/[SM] 0.013 µM^-1, 3 µM Cambinol): 0.00118 h/RFU
- 1/V (human nSMase2; 1/[SM] 0.013 µM^-1, 5 µM Cambinol): 0.00146 h/RFU
- V (human nSMase2; [SM] 19.5 µM, 2 µM Cambinol): 641 RFU/h
- V (human nSMase2; [SM] 19.5 µM, 3 µM Cambinol): 571 RFU/h
- V (human nSMase2; [SM] 19.5 µM, 5 µM Cambinol): 500 RFU/h
- V (human nSMase2; [SM] 39.0 µM, 2 µM Cambinol): 752 RFU/h
- V (human nSMase2; [SM] 39.0 µM, 3 µM Cambinol): 663 RFU/h
- V (human nSMase2; [SM] 39.0 µM, 5 µM Cambinol): 567 RFU/h
- V (human nSMase2; [SM] 78.0 µM, 2 µM Cambinol): 1042 RFU/h
- V (human nSMase2; [SM] 78.0 µM, 3 µM Cambinol): 849 RFU/h
- V (human nSMase2; [SM] 78.0 µM, 5 µM Cambinol): 684 RFU/h
- V (human nSMase2; [SM] 156.0 µM, 2 µM Cambinol): 1336 RFU/h
- V (human nSMase2; [SM] 156.0 µM, 3 µM Cambinol): 1055 RFU/h
- V (human nSMase2; [SM] 156.0 µM, 5 µM Cambinol): 784 RFU/h
- V (human nSMase2; [SM] 313.0 µM, 2 µM Cambinol): 1621 RFU/h
- V (human nSMase2; [SM] 313.0 µM, 3 µM Cambinol): 1288 RFU/h
- V (human nSMase2; [SM] 313.0 µM, 5 µM Cambinol): 922 RFU/h
- mode of inhibition (MOI) (human nSMase2; human nSMase2): uncompetitive
- IC50 (rat nSMase2): 6 µM
- IC50 (SIRT1): 56 µM
- neuron survival, Mean (normalized to control untreated cells) ([1]; 100 ng/ml IL1β 18 h, 0.1 µM compound): 77.25
- neuron survival, Mean (normalized to control untreated cells) ([1]; 100 ng/ml IL1β 18 h, 0.3 µM compound): 74.03
- neuron survival, Mean (normalized to control untreated cells) ([1]; 100 ng/ml IL1β 18 h, 1 µM compound): 84.51
- neuron survival, Mean (normalized to control untreated cells) ([1]; 100 ng/ml IL1β 18 h, 3 µM compound): 93.01
- neuron survival, Mean (normalized to control untreated cells) ([1]; 100 ng/ml IL1β 18 h, 10 µM compound): 93.58
- neuron survival, Mean (normalized to control untreated cells) ([1]; 100 ng/ml IL1β 18 h, 25 µM compound): 97.12
- neuron survival, Mean (normalized to control untreated cells) ([1]; 100 ng/ml TNFα 18 h, 0.1 µM compound): 78.25
- neuron survival, Mean (normalized to control untreated cells) ([1]; 100 ng/ml TNFα 18 h, 0.3 µM compound): 82.52
- neuron survival, Mean (normalized to control untreated cells) ([1]; 100 ng/ml TNFα 18 h, 1 µM compound): 86.26
- neuron survival, Mean (normalized to control untreated cells) ([1]; 100 ng/ml TNFα 18 h, 3 µM compound): 90.17
- neuron survival, Mean (normalized to control untreated cells) ([1]; 100 ng/ml TNFα 18 h, 10 µM compound): 91.48
- neuron survival, Mean (normalized to control untreated cells) ([1]; 100 ng/ml TNFα 18 h, 25 µM compound): 92.36
- effect on TNF-α or IL-1β-induced neuron cell death (words) [1]: decreased
- effect on TNF-α or IL-1β-induced neuron cell death (words) ([1]; listed as cambinol): prevent; also recorded: inhibited; also recorded: protected
- neuron survival, Mean (normalized to control untreated cells) ([1]; No IL1β, 25 µM compound): 91.21
